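Interpolation was linear, between the two tested concentrations surrounding the appropriate level; five concentrations were tested over 48 hours in 96-well plates. GI50 = concentration required for 50% inhibition of growth.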 Activity calls are given as the source filed them. No stated cut-off is given here; in the data, active = GI50 up to about 1.1 µM and inactive = higher.
Assays:
Assay in all cases: NCI tumour cell line growth inhibition, 48 h
HOP-62 = system: HOP-62
SW-620 = system: SW-620
NCI-H23 = system: NCI-H23
SF-539 = system: SF-539
HL-60 = system: HL-60
HT-29 = system: HT-29
MCF7 = system: MCF7
A498 = system: A498
SK-MEL-5 = system: SK-MEL-5
UACC-257 = system: UACC-257
U-251 = system: U-251
T47D = system: T47D
OVCAR-5 = system: OVCAR-5
HCT-15 = system: HCT-15
SF-268 = system: SF-268
OVCAR-3 = system: OVCAR-3
SK-MEL-28 = system: SK-MEL-28
MOLT-4 = system: MOLT-4
Malme-3M = system: Malme-3M
SK-MEL-2 = system: SK-MEL-2
M14 = system: M14
A549 = system: A549
IGROV-1 = system: IGROV-1
HCT-116 = system: HCT-116
HCC 2998 = system: HCC 2998
K562 = system: K562
NCI-H226 = system: NCI-H226
OVCAR-4 = system: OVCAR-4
CAKI-1 = system: CAKI-1
MDA-MB-435 = system: MDA-MB-435
LOX IMVI = system: LOX IMVI
SK-OV-3 = system: SK-OV-3
DU-145 = system: DU-145
ACHN = system: ACHN
MDA-MB-231 = system: MDA-MB-231
PC-3 = system: PC-3
UACC-62 = system: UACC-62
786-0 = system: 786-0
NCI/ADR-RES = system: NCI/ADR-RES
HOP-92 = system: HOP-92
SNB-19 = system: SNB-19
NCI-H522 = system: NCI-H522
RPMI-8226 = system: RPMI-8226
MDA-N = system: MDA-N
EKVX = system: EKVX
SF-295 = system: SF-295
UO-31 = system: UO-31
NCI-H460 = system: NCI-H460
SR = system: SR
Hs-578T = system: Hs-578T
RXF 393 = system: RXF 393
SN12C = system: SN12C
COLO 205 = system: COLO 205
OVCAR-8 = system: OVCAR-8
KM12 = system: KM12
TK-10 = system: TK-10
CCRF-CEM = system: CCRF-CEM
SNB-75 = system: SNB-75

Measured: GI50

O=C(/C=C/c1ccc(O)c(O)c1)OCCCc1ccccc1
active: HL-60 1.07 µM | MOLT-4 0.946 µM | NCI-H522 0.851 µM
3.9 µM: HCT-15
inactive: HOP-62 13.7 µM | SW-620 12.6 µM | NCI-H23 13.2 µM | SF-539 2.45 µM | HT-29 21.9 µM | MCF7 12 µM | A498 16.4 µM | SK-MEL-5 13.2 µM | UACC-257 34.1 µM | U-251 11 µM | T47D 16.4 µM | OVCAR-5 18.4 µM | SF-268 10.2 µM | OVCAR-3 1.71 µM | SK-MEL-28 15.3 µM | Malme-3M 12.1 µM | SK-MEL-2 17.5 µM | M14 7.78 µM | A549 14.3 µM | IGROV-1 3.34 µM | HCT-116 10.6 µM | HCC 2998 20.4 µM | K562 21.3 µM | NCI-H226 16 µM | OVCAR-4 6.67 µM | CAKI-1 20.6 µM | MDA-MB-435 9.44 µM | LOX IMVI 12.3 µM | SK-OV-3 23.6 µM | DU-145 14.1 µM | ACHN 5.32 µM | MDA-MB-231 11.8 µM | PC-3 8.85 µM | UACC-62 9.84 µM | 786-0 4.39 µM | NCI/ADR-RES 8.39 µM | HOP-92 12.9 µM | SNB-19 15 µM | RPMI-8226 13.1 µM | MDA-N 11.8 µM | EKVX 25.8 µM | SF-295 16 µM | UO-31 4.95 µM | NCI-H460 20.2 µM | SR 5.69 µM | Hs-578T 28.4 µM | RXF 393 11.2 µM | SN12C 11.9 µM | COLO 205 12.4 µM

C/C(C=O)=C/[C@@]1(C)O[C@@H](C)[C@@](C)(O)[C@@H]1O
22.2 µM: HCT-15
inactive: HOP-62 63.1 µM | SW-620 87.3 µM | NCI-H23 33.3 µM | SF-539 40.2 µM | HL-60 > 100 µM | HT-29 > 100 µM | MCF7 25.6 µM | A498 83.6 µM | OVCAR-8 18.8 µM | SK-MEL-5 64.6 µM | UACC-257 22.1 µM | U-251 > 100 µM | T47D > 100 µM | KM12 35.4 µM | TK-10 77.6 µM | OVCAR-5 > 100 µM | SF-268 25.2 µM | OVCAR-3 49.1 µM | CCRF-CEM 36.9 µM | SK-MEL-28 > 100 µM | MOLT-4 5.62 µM | Malme-3M 52 µM | SK-MEL-2 80.5 µM | M14 32.5 µM | A549 > 100 µM | IGROV-1 > 100 µM | HCT-116 93.1 µM | HCC 2998 17.4 µM | K562 7.94 µM | NCI-H226 > 100 µM | OVCAR-4 > 100 µM | CAKI-1 19.9 µM | MDA-MB-435 31 µM | LOX IMVI 95.5 µM | SK-OV-3 > 100 µM | DU-145 78.9 µM | ACHN 24.5 µM | MDA-MB-231 > 100 µM | PC-3 47.5 µM | UACC-62 43.7 µM | 786-0 17 µM | NCI/ADR-RES 21.9 µM | HOP-92 37.2 µM | SNB-19 61.1 µM | NCI-H522 19 µM | RPMI-8226 30.9 µM | MDA-N 44.3 µM | EKVX > 100 µM | SF-295 41.1 µM | UO-31 1.3 µM | NCI-H460 22.2 µM | SR 2.58 µM | Hs-578T 49.5 µM | RXF 393 > 100 µM | SN12C 32.5 µM | COLO 205 40.7 µM

N#Cc1sc2c(c1OC(=O)c1ccc(C(F)(F)F)cc1)c(=O)n(-c1ccccc1)c(=S)n2-c1ccccc1
active: NCI-H522 0.107 µM | SR 0.0481 µM
inactive: HOP-62 31.1 µM | SW-620 40.2 µM | NCI-H23 29.6 µM | SF-539 25.2 µM | HL-60 21 µM | HT-29 25.2 µM | MCF7 30.1 µM | A498 26.7 µM | OVCAR-8 23.2 µM | SK-MEL-5 24.9 µM | UACC-257 42.7 µM | U-251 20.7 µM | T47D 34.5 µM | KM12 27.7 µM | TK-10 27.6 µM | OVCAR-5 49.2 µM | SF-268 33 µM | OVCAR-3 19.5 µM | CCRF-CEM 10.2 µM | SK-MEL-28 33.8 µM | MOLT-4 19.5 µM | Malme-3M 33 µM | SNB-75 27.4 µM | M14 24.2 µM | A549 23.3 µM | IGROV-1 21.2 µM | HCT-116 17.8 µM | HCC 2998 34.4 µM | K562 28.2 µM | NCI-H226 29.8 µM | OVCAR-4 33.8 µM | CAKI-1 32.4 µM | MDA-MB-435 26.5 µM | LOX IMVI 24.5 µM | SK-OV-3 38.5 µM | DU-145 38.5 µM | ACHN 26.2 µM | MDA-MB-231 31.3 µM | PC-3 26.7 µM | UACC-62 22.4 µM | 786-0 32.1 µM | NCI/ADR-RES 27.9 µM | HOP-92 19.7 µM | SNB-19 34 µM | RPMI-8226 17.4 µM | MDA-N 29.5 µM | EKVX 24.9 µM | SF-295 25.6 µM | NCI-H460 30.3 µM | Hs-578T 26.2 µM | RXF 393 14.8 µM | SN12C 29.5 µM | COLO 205 21.6 µM
21.8 µM: HCT-15
